Measurements: PubChem BioAssay (NCI)
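Cultured in 96-well plates, cells were exposed to test compound for 48 hours across five concentrations. TGI is the concentration that stops growth completely.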

Assays:
Experiment in all cases: growth of human tumour cells (NCI), 48 h
BT-549 breast = tested on: BT-549 breast
RXF 393 renal = tested on: RXF 393 renal
NCI/ADR-RES ovarian = tested on: NCI/ADR-RES ovarian
SF-268 CNS = tested on: SF-268 CNS
UO-31 renal = tested on: UO-31 renal
NCI-H23 lung = tested on: NCI-H23 lung
T-47D breast = tested on: T-47D breast
U251 CNS = tested on: U251 CNS
KM12 colon = tested on: KM12 colon
SR leukemia = tested on: SR leukemia
SK-MEL-5 melanoma = tested on: SK-MEL-5 melanoma
MDA-MB-435 = tested on: MDA-MB-435
SN12C renal = tested on: SN12C renal
MDA-N = tested on: MDA-N
MOLT-4 leukemia = tested on: MOLT-4 leukemia
MALME-3M melanoma = tested on: MALME-3M melanoma
UACC-257 melanoma = tested on: UACC-257 melanoma
MDA-MB-231 breast = tested on: MDA-MB-231 breast
M14 melanoma = tested on: M14 melanoma
SNB-75 CNS = tested on: SNB-75 CNS

Row | Structure (SMILES) | TGI (BT-549 breast) | TGI (RXF 393 renal) | TGI (NCI/ADR-RES ovarian) | TGI (SF-268 CNS) | TGI (UO-31 renal) | TGI (NCI-H23 lung) | TGI (T-47D breast) | TGI (U251 CNS) | TGI (KM12 colon) | TGI (SR leukemia) | TGI (SK-MEL-5 melanoma) | TGI (MDA-MB-435) | TGI (SN12C renal) | TGI (MDA-N) | TGI (MOLT-4 leukemia) | TGI (MALME-3M melanoma) | TGI (UACC-257 melanoma) | TGI (MDA-MB-231 breast) | TGI (M14 melanoma) | TGI (SNB-75 CNS)
1 | O=[N+]([O-])c1ccc(Oc2c(Cl)cc(S(=O)(=O)/N=C(\NO)Nc3ccc(Cl)cc3)cc2Cl)cc1 | 25 µM | 29.9 µM | 32.2 µM | 35.3 µM | 19.2 µM | 23.6 µM | 34.3 µM | 25.7 µM | 29 µM | 17.2 µM | 22.2 µM | 28 µM | 25.8 µM | 24.8 µM | 21.7 µM | 29 µM | 22.6 µM | 25.3 µM | 25.6 µM | 
2 | CCC1(CC)C(=O)NN(C(=O)c2ccccc2)C1=O | > 100 µM | > 100 µM | > 100 µM | > 100 µM | > 100 µM | > 100 µM | > 100 µM | > 100 µM | > 100 µM | > 100 µM | > 100 µM | > 100 µM | > 100 µM | > 100 µM | > 100 µM | > 100 µM | > 100 µM | > 100 µM | > 100 µM | > 100 µM
3 | CC(=N/N=C/c1ccccn1)/C(C)=N/N=C(C)/C(C)=N/N=C(C)/C(C)=N/N=C(C)/C(C)=N\N=C\c1ccccn1 | > 100 µM | > 100 µM | > 100 µM | > 100 µM | > 100 µM | > 100 µM | > 100 µM | > 100 µM | > 100 µM | > 100 µM | > 100 µM | > 100 µM | > 100 µM | > 100 µM |  | > 100 µM | > 100 µM | > 100 µM | > 100 µM | > 100 µM
4 | O=C(/C=C/c1ccc2c(c1)OCO2)CC(=O)C(=O)c1c[nH]c2ccccc12 | > 100 µM | 96.6 µM | > 100 µM | > 100 µM | 64.1 µM | > 100 µM | 62.1 µM | > 100 µM | > 100 µM | > 100 µM | > 100 µM | 68.5 µM | > 100 µM | 91.3 µM | > 100 µM | > 100 µM | > 100 µM | > 100 µM | > 100 µM | 96.6 µM
5 | NS(=O)(=O)c1cc(Cl)c(NC(=S)NC(=O)Nc2ccc(Cl)c(Cl)c2)c(Cl)c1 | > 100 µM | > 100 µM | > 100 µM | > 100 µM | > 100 µM | > 100 µM | > 100 µM | > 100 µM | > 100 µM | > 100 µM | 40.3 µM | > 100 µM | > 100 µM | > 100 µM | > 100 µM | > 100 µM | > 100 µM | > 100 µM | > 100 µM | > 100 µM
6 | Cc1cn(C2CC(O)C(CO)O2)c(=O)[nH]c1=O (stereo not drawn) | > 5000 µM | > 5000 µM | > 5000 µM | > 5000 µM | > 5000 µM | > 4530 µM | > 5000 µM | > 5000 µM | > 5000 µM | > 5000 µM | > 5000 µM | > 5000 µM | > 4240 µM | > 5000 µM | 4090 µM | > 4900 µM | > 5000 µM | > 5000 µM | > 5000 µM | > 4500 µM
7 | CCCCC(C(=O)NCCNC(=O)CCC(=O)N(C)O)C(=O)NCCNC(=O)CCC(=O)N(C)O | > 100 µM | > 100 µM | > 100 µM |  | > 100 µM | > 100 µM | > 100 µM | > 100 µM | > 100 µM | > 100 µM | > 100 µM | > 100 µM | > 100 µM | > 100 µM | > 100 µM | > 100 µM | > 100 µM | > 100 µM | > 100 µM | > 100 µM
8 | CCOC(=O)c1ccc(NCC#CCN2CCOCC2)cc1 | > 100 µM | > 100 µM | > 100 µM | > 100 µM | > 100 µM | > 100 µM | > 100 µM | > 100 µM | > 100 µM | > 100 µM | > 100 µM | > 100 µM | > 100 µM | > 100 µM | > 100 µM | > 100 µM |  | > 100 µM | > 100 µM | 
9 | COc1ccc2c(c1)OCC1Cc3ccccc3OC21 (stereo not drawn) | > 100 µM |  | > 100 µM | > 100 µM | > 100 µM | > 100 µM | > 100 µM | > 10 µM | > 100 µM | > 100 µM | > 10 µM | > 100 µM | > 100 µM | > 10 µM | > 100 µM | > 100 µM | > 100 µM | > 100 µM | > 100 µM | > 100 µM
10 | CCOC(=O)c1nc2c(nc1C(=O)OCC)C(=O)c1ccccc1C2=O | 2.76 µM | 2.81 µM | > 35.1 µM | 7.62 µM | 1.18 µM |  | > 62.8 µM | 2.74 µM | 14.7 µM | 0.68 µM | 2.19 µM | 0.804 µM | 0.4 µM | 0.796 µM | 6.31 µM | 0.362 µM | 1.28 µM | 8.41 µM | 1.55 µM | 2.12 µM
